From patent US20250163043A1 (TRANSTHERA SCIENCES (NANJING), INC., priority 2021, published 2025)

Key:
Type in all cases: biochemical
CDK9/CycT1 = CDK9/CycT1 (Homo sapiens, UniProt P50750); test: ADP-Glo kinase assay on CDK enzymatic activity, CDK9/CycT1; conditions: 10 concentrations from 10 μM, 4-fold, 60 min room temperature
From the text: (§1) Test samples: the compounds of the present invention, having structures shown above.
(§2) ADP-Glo Kinase Assay (ADP-Glo kinase kit), DMSO (dimethyl sulfoxide), CDK9/CycT1 (cyclin-dependent kinase 9/cyclin T1), CDK tide (cyclin-dependent kinase substrate peptide fragments), CDK1/CycE1 (cyclin-dependent kinase 1/cyclin E1), CDK2/CycA2 (cyclin-dependent kinase 2/cyclin A2), CDK3/CycE1 (cyclin-dependent kinase 3/cyclin E1), CDK4/CycD3 (cyclin-dependent kinase 4/cyclin D3), CDK5/p25NCK (cyclin-dependent kinase 5/p25), and AZD 4573.
(§3) A 384-well white plate, a 96-well plate, a microplate oscillator, a centrifuge, and a microplate reader.
(§4) The compounds were dissolved in DMSO and diluted 4-fold in the 96-well plate to obtain stock solutions with 10 concentration gradients, and added into a 384-well plate system to obtain a series of 10 concentration gradients of compound solutions with final concentrations of 10 μM starting and 4-fold gradient decreasing. 1 μM AZD4573 was used as compound positive control (PC) and 0.5% DMSO as solvent vehicle control (VC), ten duplicated wells each for PC and VC.
(§5) 1 μL of compound solution and 2 μL of 2× kinase solution were transferred to each well, and the plate was centrifuged at 1000 g for 30 s and left at room temperature for 10 min. A mixture of 2× substrate and ATP was prepared in 1× kinase buffer. The reaction was started after adding 2 μL of substrate and ATP into the plate. The plate was centrifuged at 1000 g for 30 s. The assay plate was closed and left at room temperature for 60 min. The reaction system was added with 4 μL of ADP Glo reagent, centrifuged at 1000 rpm for 1 min, and incubated at room temperature for 40 min. The reaction system was added with 8 μL of kinase assay reagent, centrifuged at 1000 rpm for 1 min and incubated at room temperature for 40 min. The […] was read on Biotek.
(§6) The inhibition rate was calculated according to the following formula: […]
(§7) Lumcmpd: compound fluorescence reading; Lumpositive: average value of the fluorescence reading of positive compound control; Lumvehicle: average value of the fluorescence reading of solvent vehicle control.
(§8) IC50 values were fitted using GraphPad 7.0 based on inhibition rates of compounds at different concentrations.

CDK1/CycE1 = CDK1/CycE1 (Homo sapiens, UniProt P06493); test: ADP-Glo kinase assay on CDK enzymatic activity, CDK1/CycE1; conditions: ADP-Glo; 10 concentrations from 10 μM, 4-fold; 60 min room temperature; read-out: CDK1/CycE1/nM (IC50)
CDK1/CycE1, sequence (P06493 whole entry, species assumed): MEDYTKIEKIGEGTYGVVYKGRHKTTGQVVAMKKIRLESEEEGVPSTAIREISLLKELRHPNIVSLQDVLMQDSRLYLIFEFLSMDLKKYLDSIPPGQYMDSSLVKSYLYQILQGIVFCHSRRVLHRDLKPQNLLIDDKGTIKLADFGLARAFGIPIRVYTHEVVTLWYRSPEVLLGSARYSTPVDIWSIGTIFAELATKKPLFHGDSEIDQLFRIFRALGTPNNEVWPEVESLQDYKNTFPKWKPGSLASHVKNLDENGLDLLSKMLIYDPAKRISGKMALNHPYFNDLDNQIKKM
CDK1/CycE1, sequence (P24864 whole entry partner, species assumed): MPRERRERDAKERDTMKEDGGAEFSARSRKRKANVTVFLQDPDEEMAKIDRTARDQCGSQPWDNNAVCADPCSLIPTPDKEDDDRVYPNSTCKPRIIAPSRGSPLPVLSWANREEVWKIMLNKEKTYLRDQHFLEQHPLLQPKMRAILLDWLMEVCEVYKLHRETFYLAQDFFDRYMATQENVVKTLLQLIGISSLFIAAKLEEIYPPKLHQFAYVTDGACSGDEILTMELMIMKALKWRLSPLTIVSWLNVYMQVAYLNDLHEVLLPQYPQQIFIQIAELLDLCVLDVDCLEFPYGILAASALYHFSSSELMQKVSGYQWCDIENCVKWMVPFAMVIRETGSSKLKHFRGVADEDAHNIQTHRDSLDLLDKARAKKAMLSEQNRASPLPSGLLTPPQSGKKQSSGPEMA
Experimental: as §1, §3, §4, §5, §6, §7, §8

CDK2/CycA2 = CDK2/CycA2 (Homo sapiens, UniProt P24941); test: ADP-Glo kinase assay on CDK enzymatic activity, CDK2/CycA2; conditions: 10 concentrations from 10 μM, 4-fold, 60 min room temperature
From the text: as §1, §2, §3, §4, §5, §6, §7, §8

CDK9/CycT1, sequence (P50750 whole entry): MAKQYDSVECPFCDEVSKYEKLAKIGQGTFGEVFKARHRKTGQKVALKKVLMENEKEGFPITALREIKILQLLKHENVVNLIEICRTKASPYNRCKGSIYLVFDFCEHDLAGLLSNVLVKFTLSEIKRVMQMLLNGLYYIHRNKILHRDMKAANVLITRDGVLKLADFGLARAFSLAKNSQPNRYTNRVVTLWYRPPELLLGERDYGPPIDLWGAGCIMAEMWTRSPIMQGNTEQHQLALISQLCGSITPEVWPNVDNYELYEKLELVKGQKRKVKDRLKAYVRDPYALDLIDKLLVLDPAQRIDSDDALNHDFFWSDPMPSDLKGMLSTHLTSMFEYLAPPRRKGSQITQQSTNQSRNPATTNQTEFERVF
CDK9/CycT1, sequence (O60563 whole entry partner): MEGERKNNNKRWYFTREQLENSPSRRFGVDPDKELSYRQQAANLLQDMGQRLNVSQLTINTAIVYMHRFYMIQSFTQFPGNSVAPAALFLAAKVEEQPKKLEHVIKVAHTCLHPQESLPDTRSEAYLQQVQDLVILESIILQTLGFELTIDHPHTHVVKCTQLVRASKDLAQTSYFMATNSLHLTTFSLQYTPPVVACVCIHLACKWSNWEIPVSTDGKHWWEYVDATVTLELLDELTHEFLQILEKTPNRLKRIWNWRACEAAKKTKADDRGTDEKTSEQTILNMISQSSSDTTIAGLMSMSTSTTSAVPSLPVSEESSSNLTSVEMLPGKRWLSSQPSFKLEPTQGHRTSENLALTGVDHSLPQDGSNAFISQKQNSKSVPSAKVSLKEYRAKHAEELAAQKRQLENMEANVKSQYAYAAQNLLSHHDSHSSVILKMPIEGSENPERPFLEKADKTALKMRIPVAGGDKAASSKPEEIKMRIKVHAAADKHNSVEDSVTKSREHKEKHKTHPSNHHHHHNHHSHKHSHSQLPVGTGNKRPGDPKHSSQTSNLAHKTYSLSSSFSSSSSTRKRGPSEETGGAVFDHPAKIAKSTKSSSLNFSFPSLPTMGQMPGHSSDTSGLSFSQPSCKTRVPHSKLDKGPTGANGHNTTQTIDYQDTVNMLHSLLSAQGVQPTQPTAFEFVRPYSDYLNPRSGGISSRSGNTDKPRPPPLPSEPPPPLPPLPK

IC50 (CDK9/CycT1) [nM]	IC50 (CDK1/CycE1) [nM]	IC50 (CDK2/CycA2) [nM]	SMILES
2	170	306	CC(C)Nc1nc(C#N)cc2cnc(N[C@H]3C[C@](C)(N)C3)cc12 [Compound 209, 7-((trans)-3-amino-3-methylcyclobutyl)amino-1-(isopropylamino)-2,6-naphthyridine-3-carbonitrile]
4	202	330	CC(C)Nc1nc(C#N)cc2cnc(N[C@H]3CCCCNC3)nc12 [Compound C6, (S)-2-(azepan-3-ylamino)-8-(isopropylamino)pyrido[3,4-d]pyrimidine-6-carbonitrile]
2	871	510	N#Cc1cc2cnc(N[C@H]3C[C@@H](N)C3)cc2c(N[C@@H]2CCOC2)n1 [Compound 174, 7-(((1s,3S)-3-aminocyclobutyl)amino)-1-(((R)-tetrahydrofuran-3-yl)amino)-2,6-naphthyridine-3-carbonitrile]
1	112	19	CC1(Nc2nc(C#N)cc3cnc(N[C@H]4C[C@H](N)C4)nc23)CC1 [Compound C35, 2-(((1r,3r)-3-aminocyclobutyl)amino)-8-((1-methylcyclopropyl)amino)pyrido[3,4-d]pyrimidine-6-carbonitrile]
2	8	5	CC(C)(C)Nc1nc(C(F)F)cc2cnc(N[C@H]3C[C@H](O)C3)nc12 [Compound C8, (1r,3r)-3-((8-(tert-butylamino)-6-(difluoromethyl)pyrido[3,4-d]pyrimidin-2-yl)amino)cyclobutan-1-ol]
2	218	24	CC(C)Nc1nc(C#N)cc2cnc(N[C@H]3C[C@H](N4CCN(C)CC4)C3)nc12 [Compound C22, 8-(isopropylamino)-2-(((1r,3r)-3-(4-methylpiperazin-1-yl)cyclobutyl)amino)pyrido[3,4-d]pyrimidine-6-carbonitrile]
3	74	144	CC(C)(C)Nc1nc(C#N)cc2cnc(N[C@H]3CCCNC3)nc12 [Compound C7, (S)-8-(tert-butylamino)-2-(piperidin-3-ylamino)pyrido[3,4-d]pyrimidine-6-carbonitrile]
1	395	287	CC(C)(C)Nc1nc(C#N)cc2cnc(N[C@H]3C[C@@H](N)C3)cc12 [Compound 172, 7-(((1s,3s)-3-aminocyclobutyl)amino)-1-(tert-butylamino)-2,6-naphthyridine-3-carbonitrile]
2	14	10	CC(C)Nc1nc(C#N)cc2cnc(N[C@H]3C[C@H](O)C3)cc12 [Compound 166, 7-(((1r,3r)-3-hydroxycyclobutyl)amino)-1-(isopropylamino)-2,6-naphthyridine-3-carbonitrile]
2	81	22	CC(C)Nc1nc(C#N)cc2cnc(N[C@H]3C[C@H](CN)C3)nc12 [Compound C16, 2-(((1r,3r)-3-(aminomethyl)cyclobutyl)amino)-8-(isopropylamino)pyrido[3,4-d]pyrimidine-6-carbonitrile]
1	71	18	CN[C@H]1C[C@H](Nc2ncc3cc(C#N)nc(NC(C)C)c3n2)C1 [Compound C20, 8-(isopropylamino)-2-(((1r,3r)-3-(methylamino)cyclobutyl)amino)pyrido[3,4-d]pyrimidine-6-carbonitrile]
2	25	32	N#Cc1cc2cnc(N[C@H]3C[C@H](N)C3)nc2c(NC23CC(C2)C3)n1 [Compound C36, 2-(((1r,3r)-3-aminocyclobutyl)amino)-8-(bicyclo[1.1.1]pentan-1-ylamino)pyrido[3,4-d]pyrimidine-6-carbonitrile]
3	233	434	CC1(Nc2nc(C#N)cc3cnc(N[C@H]4C[C@](C)(N)C4)cc23)CC1 [Compound 211, 7-((trans)-3-amino-3-methylcyclobutyl)amino-1-((1-methylcyclopropyl)amino)-2,6-naphthyridine-3-carbonitrile]
5	798	2210	N#Cc1cc2cnc(N[C@H]3CCCNC3)cc2c(N2CCCC2)n1 [Compound 169, (S)-7-(piperidin-3-ylamino)-1-(pyrrolidin-1-yl)-2,6-naphthyridine-3-carbonitrile]
2	197	23	CC(C)Nc1nc(C#N)cc2cnc(N[C@H]3CC[C@H](N4CCOCC4)CC3)nc12 [Compound 141, 8-(isopropylamino)-2-(((1r,4r)-4-morpholinocyclohexyl)amino)pyrido[3,4-d]pyrimidine-6-carbonitrile]
7	518	153	N#Cc1cc2cnc(N[C@H]3CCCNC3)cc2c(C2=CCCC2)n1 [Compound 181]
1	540	82	COC[C@@H](C)Nc1nc(C#N)cc2cnc(N[C@H]3C[C@H](N)C3)nc12 [Compound C41, 2-(((1r,3R)-3-aminocyclobutyl)amino)-8-(((R)-1-methoxypropan-2-yl)amino)pyrido[3,4-d]pyrimidine-6-carbonitrile]
2	21	5	CC(C)Nc1nc(C#N)cc2cnc(N[C@H]3C[C@H](CO)C3)nc12 [Compound C31, 2-(((1r,3r)-3-(hydroxymethyl)cyclobutyl)amino)-8-(isopropylamino)pyrido[3,4-d]pyrimidine-6-carbonitrile]
6	288	59	CC(C)Nc1nc(C#N)cc2cnc(N[C@H]3C[C@@H](N4CCN(C)CC4)C3)nc12 [Compound C23, 8-(isopropylamino)-2-(((1s,3s)-3-(4-methylpiperazin-1-yl)cyclobutyl)amino)pyrido[3,4-d]pyrimidine-6-carbonitrile]
1	272	144	N#Cc1cc2cnc(N[C@H]3C[C@H](N)C3)cc2c(N[C@@H]2CCOC2)n1 [Compound 179, 7-(((trans)-3-aminocyclobutyl)amino)-1-(((R)-tetrahydrofuran-3-yl)amino)-2,6-naphthyridine-3-carbonitrile]
3	134	356	N#Cc1cc2cnc(N[C@H]3CCCNC3)cc2c(OC2CCCC2)n1 [Compound 185, (S)-1-(cyclopentyloxy)-7-(piperidin-3-ylamino)-2,6-naphthyridine-3-carbonitrile]
2	187	85	N#Cc1cc2cnc(N[C@H]3C[C@H](N)C3)nc2c(N[C@@H]2CCOC2)n1 [Compound C13, 2-(((1r,3R)-3-aminocyclobutyl)amino)-8-(((R)-tetrahydrofuran-3-yl)amino)pyrido[3,4-d]pyrimidine-6-carbonitrile]
7	204	844	N#Cc1cc2cnc(N[C@H]3CCCNC3)cc2c(C2=CCCCC2)n1 [Compound 180, (S)-1-(cyclohex-1-en-1-yl)-7-(piperidin-3-ylamino)-2,6-naphthyridine-3-carbonitrile]
2	142	115	CC(C)Nc1nc(C#N)cc2cnc(N[C@H]3C[C@H](N(C)C)C3)nc12 [Compound C24, 2-(((1r,3r)-3-(dimethylamino)cyclobutyl)amino)-8-(isopropylamino)pyrido[3,4-d]pyrimidine-6-carbonitrile]
2	114	253	N#Cc1cc2cnc(N[C@H]3C[C@H](N)C3)nc2c(N2CCCCC2)n1 [Compound C15, 2-(((1r,3r)-3-aminocyclobutyl)amino)-8-(piperidin-1-yl)pyrido[3,4-d]pyrimidine-6-carbonitrile]
1	25	6	CC(C)Nc1nc(C(F)F)cc2cnc(N[C@H]3C[C@H](N)C3)cc12 [Compound 206, N^7-((1r,3r)-3-aminocyclobutyl)-3-(difluoromethyl)-N^1-isopropyl-2,6-naphthyridine-1,7-diamine]
4	144	34	CC(C)Nc1nc(C#N)cc2cnc(Nc3cc(CS(C)(=N)=O)ccn3)cc12 (stereo not drawn) [Compound 170, 1-(isopropylamino)-7-((4-((S-methylsulfonimidoyl)methyl)pyridin-2-yl)amino)-2,6-naphthyridine-3-carbonitrile]
